Laboratory results taken from the NIST ThermoML archive (doi:10.1016/j.fluid.2010.03.001).

Experiment: xn = mol fraction of the nth substance listed
Conditions: 101 kPa, Liquid; for viscosity: Concentric cylinders viscometry; for mass density: Vibrating tube method

C=C(C)[C@H]1CC=C(C)CC1 [(R)-1-methyl-4-(1-methylethenyl)cyclohexene] + CCCCCO
Conditions	mass density, 293.15 K [kg/m3]	mass density, 303.15 K [kg/m3]	mass density, 313.15 K [kg/m3]	mass density, 323.15 K [kg/m3]	viscosity, 293.15 K [mPa·s]	viscosity, 303.15 K [mPa·s]	viscosity, 313.15 K [mPa·s]	viscosity, 323.15 K [mPa·s]	viscosity, 333.15 K [mPa·s]
x2 = 0	841.5	833.6	825.8	817.9	0.902	0.793	0.702	0.628	0.566
x2 = 0.092	839.4	831.4	823.4	815.4	0.935	0.814	0.716	0.635	0.568
x2 = 0.1644	837.8	829.8	821.8	813.7	0.983	0.85	0.743	0.655	0.582
x2 = 0.2748	835.4	827.4	819.4	811.3	1.079	0.923	0.799	0.699	0.616
x2 = 0.3592	833.5	825.4	817.4	809.3	1.182	1	0.854	0.737	0.644
x2 = 0.4565	831.2	823.2	815.2	807.1	1.34	1.115	0.942	0.805	0.696
x2 = 0.5542	828.8	820.8	812.9	804.8	1.564	1.275	1.057	0.891	0.761
x2 = 0.6068	827.4	819.5	811.6	803.5	1.717	1.384	1.137	0.949	0.803
x2 = 0.647	826.4	818.4	810.6	802.5	1.851	1.477	1.201	0.995	0.837
x2 = 0.7365	823.8	816	808.2	800.2	2.213	1.73	1.386	1.129	0.937
x2 = 0.8234	821.1	813.4	805.8	797.9	2.66	2.055	1.617	1.298	1.06
x2 = 0.9105	818.1	810.5	803	795.3	3.26	2.473	1.915	1.51	1.219
